The text below walks through data of patent publication US9163032B2, “Esters of DCPLA and methods of treatment using the same” (Blanchette Rockefeller Neurosciences Institute, priority 2011, dated 2015).

The target in data set [1] is T1, PKC-ε (Homo sapiens, UniProt Q02156).
T1 sequence (Q02156 1-737): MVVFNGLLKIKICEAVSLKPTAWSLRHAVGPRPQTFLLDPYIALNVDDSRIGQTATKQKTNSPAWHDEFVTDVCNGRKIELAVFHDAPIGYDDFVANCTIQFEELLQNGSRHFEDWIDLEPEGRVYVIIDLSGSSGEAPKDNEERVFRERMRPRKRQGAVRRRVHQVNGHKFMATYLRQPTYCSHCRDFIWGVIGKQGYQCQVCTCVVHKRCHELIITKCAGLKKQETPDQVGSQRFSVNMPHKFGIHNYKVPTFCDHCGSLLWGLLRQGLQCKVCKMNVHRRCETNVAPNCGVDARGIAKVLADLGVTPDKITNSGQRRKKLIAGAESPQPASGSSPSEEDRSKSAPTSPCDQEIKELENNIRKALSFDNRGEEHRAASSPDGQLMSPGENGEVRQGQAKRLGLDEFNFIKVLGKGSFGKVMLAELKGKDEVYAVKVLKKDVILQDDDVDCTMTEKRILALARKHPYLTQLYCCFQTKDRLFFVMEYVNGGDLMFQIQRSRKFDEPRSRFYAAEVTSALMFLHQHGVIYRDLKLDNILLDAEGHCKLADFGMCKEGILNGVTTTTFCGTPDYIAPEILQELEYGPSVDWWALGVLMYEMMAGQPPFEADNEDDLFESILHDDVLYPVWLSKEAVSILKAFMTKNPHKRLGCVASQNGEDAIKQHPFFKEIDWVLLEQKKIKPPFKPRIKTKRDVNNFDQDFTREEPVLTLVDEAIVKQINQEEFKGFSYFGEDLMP
Nature of the data set: PKC activation assay with purified PKC-ε isozyme (32P-phosphoprotein formation). Format: biochemical. Particulars: for Emax: % of control of PKCε at maximum; for Specificity ε/α: Activation of PKC-ε ÷ activation or inhibition of PKCα at 3xEC50; for EC50: lowest concentration that activates by 50% of maximum activation. As to the method: For measurement of PKC activation by DCPLA-ME, activation of recombinant PKC-α, PKC-ε, and PKC-δ was evaluated. DCPLA-ME induced activation was measured in the absence of diacylglycerol (DAG) and phosphatidylserine (PS) as described earlier. See Nelson, T. J. et al., J. Biol. Chem., 2009, 284: 34514-34521, and Kanno, T. et al., J. Cell Physiol., 2009, 221: 183-188. Individual enzymes were incubated for 15 min at 37° C. in the presence of 10 μM histones, 4.89 mM CaCl2, 10 mM MgCl2, 20 mM HEPES (pH 7.4), 0.8 mM EDTA, 4 mM EGTA, 4% glycerol, 8 μg/ml aprotinin, 8 μg/ml leupeptin, 2 mM benzamidine, and 0.5 μCi of [γ-^32P]ATP. Purified PKC-α, PKC-ε and PKC-δ were preincubated with DCPLA-ME for 5 min at room temperature. [^32P]-Phosphoprotein formation was measured by adsorption onto phosphocellulose.
To measure PKC, 10 μl of cell homogenate or purified PKC isozyme was incubated for 15 min at 37° C. in the presence of 10 μM histones, 4.89 mM CaCl2, 1.2 μg/μl phosphatidyl-L-serine, 0.18 μg/μl 1,2-dioctanoyl-sn-glycerol, 10 mM MgCl2, 20 mM HEPES (pH 7.4), 0.8 mM EDTA, 4 mM EGTA, 4% glycerol, 8 μg/ml aprotinin, 8 μg/ml leupeptin, and 2 mM benzamidine. [γ32P]ATP (0.5 μCi) was added and 32P-phosphoprotein formation was measured by adsorption onto phosphocellulose as described previously. See Nelson et al., J. Neurochemistry, 1995, 65: 2350-2357.
PKC activity of each compound was measured in the absence of diacylglycerol and phosphatidyl-L-serine and PKC-δ and PKC-ε were measured in the absence of added EGTA and CaCl2, as described by Kanno et al., J. Lipid Res., 2006, 47: 1146-1156. Low concentrations of Ca^2+ are needed because high Ca^2+ interacts with the PKC phosphatidylserine binding site and prevents activation. […] To determine their PKC isozyme specificity, the compounds were pre-incubated with purified isoforms of PKC for five minutes and the PKC activity was measured radiometrically.
The activation and PKC isozyme specificity of DCPLA-ethyl ester was measured following the procedures in Example 1(B) and (C), except that 9 ng of the purified isozyme was used and it was pre-incubated for 5 minutes at room temperature (FIG. 3). PKC-ε activation by DCPLA-tert-butyl ester and DCPLA-retinyl ester was measured in the same manner as DCPLA-ethyl ester (FIG. 3).
The EC50 values, PKC specificity, and activation for a select number of DCPLA esters was determined (see Table 1). EC50 values were determined by measuring the lowest concentration that activates by 50% of maximum activation. […] The specificity and activation of PKC by the various esters of DCPLA were determined from the measurements of activation of PKC isozymes.

Data set [2] concerns rat primary hippocampal neurons. Nature of the data set: Neurotoxic effect of Aβ1-42 oligomers, MTT viability assay. The format is cell-based. Particulars: 20 hr. As to the method: Amylospheroids (ASPDs) and Aβ monomers were prepared following Hoshi, M., et al. (2003) Proc Natl Acad Sci USA 100, 6370-6375, and Noguchi, A., et al. (2009) J Biol Chem 284, 32895-32905. Briefly, Aβ1-42 was dissolved in 1,1,1,3,3,3-hexafluoro-2-propanol and incubated overnight at 4° C. and then 3 hr at 37° C. The dissolved Aβ1-42 was then lyophilized in 1.5 ml polypropylene centrifuge tubes at 40 nmol/tube concentration. For preparing the ASPDs, the lyophilized Aβ was dissolved in phosphate buffered saline (PBS) without Ca^2+ or Mg^2+ at less than 50 μM concentration and rotated for 14 hr at 4° C. After incubation, the Aβ solution was purified using a 100 kDa molecular mass cutoff filter (Amicon Ultra, Millipore) and the high-molecular weight fraction was saved to obtain the most toxic ASPDs. Aβ derived diffusible ligands (ADDLs) were produced as previously described. See Lambert, M. P et al., Proc. Natl. Acad. Sci. USA, 1998, 95: 6448-6453. Briefly, Aβ1-42 was solubilized at 5 mM in dimethyl sulfoxide, diluted to 100 μM in F12k medium and was incubated at 4° C. for 24 hr. The solution was centrifuged at 14000×g for 10 min at 4° C. and the supernatant was used as the ADDLs.
Viability of cells was measured by MTT assay. MTT (i.e., 3-(4,5-dimethylthiazol-2-yl)-2,5-diphenyltetrazolium bromide) is a tetrazolium salt that is cleaved to formazan by the succinate dehydrogenase, which is only active in viable cells. After solubilization of the formazan, the amount of dye can be quantified with a microplate reader at 570 nm along with a reference of 630 nm. For the MTT assay, 5×10^4 primary rat hippocampal neurons from 18-day-old embryonic Sprague-Dawley rat brains or SH-SY5Y cells were plated on each well of 24-well plates coated with poly-D-lysine. After treatment, the cells were washed with 1× PBS and were incubated with 200 μl of 1 mg/ml MTT solution (Sigma, USA) at 37° C. for 2 hr. Then the MTT-solution was removed and the cells were lysed with 200 μl isopropanol containing 0.04 M HCl and […] for 10 min. Finally, the reading was taken at 570 nm and 630 nm. All the samples were done in triplicate and the data were represented as the percentage of control.
To assess the neurotoxic effect of different sized oligomers, rat primary hippocampal neurons were treated with variable concentrations of these Aβ1-42 species for 20 hr. Viability of the treated cells was compared to untreated cells using the MTT assay described above.
In general terms: Tetrazolium assays rely on reduction of a dye to a coloured formazan, in cell work by metabolically active cells.

Data set [3] deals with Phosphatidylserine (C2) Binding Site. Nature of the data set: 3H-DCPLA-ME binding to rat brain slices with C1 and C2 competitors (film-autoradiography). Particulars: rat brain slices. As to the method:
To determine the binding site of DCPLA-ME, ^3H-DCPLA-ME was incubated with rat brain slices in the absence and presence of known C1 and C2 competitors. More specifically, rat brain sections were fixed with formaldehyde, sliced, and incubated with (1)^3H-DCPLA-ME alone; (2)^3H-DCPLA-ME with DCPLA; (3)^3H-DCPLA-ME with Phorbol ester; or (4)^3H-DCPLA-ME and Bryostatin 1. After incubation, the slices were washed with a buffer made of 130 mM NaCl, 5 mM MgCl, 5 mM KCl, 1 mM EGTA, and 0.1% bovine serum albumin in 10 mM HEPES-NaOH, pH 7.4, dried, and analyzed with film-autoradiography.

As a reminder, the Emax is the greatest response seen or fitted, relative to the assay's reference. One may read the EC50 as the concentration needed to bring the measured effect to its halfway point. As to `CCCCCCCCC1CC1CCCCCCCCOC(=O)CCCCCCCC1CC1CC1CC1CCCCC` (stereo not shown) [DCPLA-cyclopropanated oleyl ester], in data set [1], the Emax is 140%, the “Specificity ε/α” value is 8.1 and a half-maximal effect (EC50) was put at 3 nM. For the same compound, the “concentration of maximal activation” value in data set [1] (FIG. 2, FIG. 4) worked out at 10 nM. Further, in data set [1] (PKC-ε vs PKC-α and PKC-δ), the “PKC isozyme specificity” value is recorded as “relatively specific for PKC-ε”. In addition, the “PKC-ε activation at its peak” value in data set [1] (maximum, FIG. 1, 2, 4) was 140 % of control.
In the case of “oAβ < 100 kDa: filtrate from the 100 kDa filtration of ASPD preparation, 12 monomers on average”, the “Viability of primary neuron” value is listed as 76.41 ± 5.54 % of control in data set [2] (50 nM); “significantly cytotoxic” in data set [2] (50 nM, listed as OAβ<100 kDa filtrate); 62.94 ± 9.53 % of control in data set [2] (500 nM); 53.52 ± 2.43 % of control in data set [2] (1000 nM (1 μM)).
In the case of `CCCCCC1CC1CC1CC1CCCCCCCC(=O)OCC` (stereo not shown) [DCPLA-ethyl ester], in data set [1], the Emax was found to be 126%, the “Specificity ε/α” value was 4.2 and the response was half-maximal at 3 nM (EC50).
Take `CCCCCC1CC1CC1CC1CCCCCCCC(=O)O` (stereo not shown) [DCPLA, 8-[2-(2-pentylcyclopropylmethyl)-cyclopropyl]-octanoic acid]: in data set [3], the “3H-DCPLA-ME binding, 30 nM competitor” value came to 86% and the “3H-DCPLA-ME binding, 1 μM competitor” value was 35%. Further, in data set [1], the Emax came out at 300%, the “Specificity ε/α” value came out at 7.4 and it took 1000 nM to reach a half-maximal effect (EC50).
Turning to `CCCC(=O)O[C@@H]1[C@@H](C)[C@@]2(O)[C@@H](C=C(CO)C[C@]3(O)C(=O)C(C)=C[C@@H]23)[C@@H]2C(C)(C)[C@]12OC(=O)CCC` [Phorbol ester (PdBu)], in data set [3], the “3H-DCPLA-ME binding, 30 nM competitor” value worked out at 100% and the “3H-DCPLA-ME binding, 1 μM competitor” value was found to be 81%.
In data set [1], `CCCCCC1CC1CC1CC1CCCCCCCC(=O)OC/C=C(C)/C=C/C=C(C)/C=C/C1=C(C)CCCC1(C)C` (stereo not shown) [DCPLA-retinyl ester] showed an Emax of 129% and an EC50 of 10 nM.
Consider `CCCCCC1CC1CC1CC1CCCCCCCC(=O)OC(C)(C)C` (stereo not shown) [DCPLA-t-butyl ester, DCPLA-tert-butyl ester], for which, in data set [1], the “form of activity vs. concentration response” value is “bimodal activation”, the Emax was found to be 130% and the EC50 is 1 nM.
